{
  "source": "patent US11998600B2",
  "about": "“Enhancing the therapeutic activity of an immune checkpoint inhibitor” (MaineHealth, priority 2015, dated 2024)",
  "key": {"[1]": {"system": "chick chorioallantoic membrane (CAM)", "assay": "Chick CAM inflammation assay, induction by RGD collagen peptides", "type": "in vivo", "conditions": "chick CAM, no cortisone acetate; FIG. 5D", "experimental": "(§1) The chick chorioallantoic membrane (CAM) assays were carried out with some modifications (19). For all experiments CAMs of 10-day-old chick embryos obtained from Charles River (North Franklin, CT) were separated from the shell membrane. Filter discs either non-treated (inflammation assays) pretreated (angiogenesis assays) with cortisone acetate (3.0 mg/ml) containing RPMI only or FGF-2 (40 ng). CAMs were either non-treated or treated topically with Mab XL313, XL166 or a non-specific control antibody (10 μg/embryo every 24 h for three consecutive treatments). […] At the end of the incubation period the embryos were sacrificed and the CAM tissues were analyzed. Angiogenesis was quantified by counting the number of angiogenic branching blood vessels within the area of the filter disc. The angiogenic index was determined by subtracting the mean number of blood vessel branch points from untreated CAMs from each experimental condition. Eight to twelve embryos were used per condition and experiments were repeated at least three times.\nThe effects of the soluble RGD containing collagen peptides on inflammation were examined."}, "Fak": {"system": "Fak", "assay": "Fak phosphorylation in endothelial cells attached to collagen peptides", "type": "cell-based, human", "conditions": "serum free conditions", "experimental": "(§2) Whole cell and CAM tissue lysates were collected in RIPA buffer supplemented with 1× protease inhibitor and 1× phosphatase inhibitor and were run on polyacrylamide gels using denaturing conditions. Prior to loading the gels, 6× sample buffer was added to each of the lysates (final concentration 1×) and boiled for five minutes. Twenty to 50 μg of total protein were loaded into each lane. For detection of proteins larger than 50 kD, 10% gels were used; for proteins smaller than 50 kD 15% gels were used. Gels were run at 60 volts (v) until the dye front passed through the stacking gel, and then the voltage was increased to 100V for the remainder of the separation. Precision Plus protein standards (Bio-Rad) were used to visualize migration. […] Western blot bands were quantified using Image J software based on pixel intensity.\n(§3) Because both RGD containing peptides bind αvβ3 coupled with the differential effect of these peptides on angiogenesis and inflammation, it was determined whether the RGD peptides differentially altered αvβ3-mediated signaling. […] Therefore, the differential phosphorylation of these protein kinases following the early mechanical-mediated interactions with the RGD containing collagen peptides was assessed. […]"}, "HUVEC": {"system": "HUVEC", "assay": "Cell proliferation assay, HUVEC", "type": "cell-based, human", "conditions": "peptide 100 ng/ml, 24 hours; FIG. 8C", "experimental": "(§4) HUVECs (WT, shYAP1 or control transfected) or HRMVECs were plated at 2,000 cells per well with complete EGM-2 media containing 2.0% FBS in the absence or presence of P-1, P-2 or P-C (100 ng/ml) and allowed to grow for 24 hours. Cell growth was monitored using a BrdU or MMT assay kits according to manufacturer's instructions. All assays were completed at least three times in triplicate wells."}, "HRMVEC": {"system": "HRMVEC", "assay": "Cell proliferation assay, HRMVEC", "type": "cell-based, human", "conditions": "peptide 100 ng/ml, 24 hours; FIG. 8D", "experimental": "as §4"}, "[2]": {"system": "endothelial cells in which YAP was knocked down", "assay": "Cell proliferation assay, endothelial cells transduced with YAP specific shRNA", "type": "cell-based, human", "conditions": "soluble peptide (FIG. 8H) or VEGF 50 ng/ml (FIG. 8I)", "experimental": "as §4\nRaw cells were transfected with 1 μg of HuSH shRNA plasmids for collagen type I, alpha 2 using Amaxa cell line nucleofector kit V (program #T024). Constructs expressing 21-nucleotide short hairpin RNAs (shRNA) targeting human YAP (shYAP) or non-targeting control (shNT, Sigma-Aldrich, SHC002) were used. Humantargeting shYAP1 lentiviral shRNA was obtained from the Thermo Scientific RNAi consortium (TRCN0000107625). Constructs were packaged into lentivirus, pseudotyped with the vesicular stomatitis virus glycoprotein. Transduction was performed by incubating cells with lentivirus, and stably transduced cells were subsequently used for studies. All cell lines were verified by morphology and mouse and human YAP-specific PCR. […] Endothelial cells were certified mycoplasma-negative by PCR (Lonza), and primary cell cultures were used within the indicated passage numbers. Cells were transduced and selected using puromycin.\nEndothelial cells with YAP specific or non-specific shRNAs were transduced."}, "YAP": {"system": "YAP", "assay": "Nuclear YAP in HRMVEC stimulated with soluble peptide, with Src or P38MAPK inhibitor", "type": "cell-based, human", "conditions": "inhibitors 10 μM; FIGS. 8E and 8F"}, "β3-integrin": {"system": "β3-integrin", "assay": "β3-integrin phosphorylation in endothelial cells attached to collagen peptides, Western blot", "type": "cell-based, human", "conditions": "PP2 10 μM vs DMSO; FIG. 7E", "experimental": "(§5) Endothelial cells (HUVECs or HRMVECs) were incubated in serum free media with 1 mM MgCl2, 0.2 mM MnCl2 in the presence of a Src inhibitor, PP2, (10 μM) a P38MAPK inhibitor, SB202190 (10 μM) or vehicle only (DMSO) for 10 min at 37° C. Treated cells were then seeded on to immobilized P-1 and P-2 and lysates were collected at 15 min.\nas §2, with “used.” for “used. Gels were run at 60 volts (v) until the dye front passed through the stacking gel, and then the voltage was increased to 100V for the remainder of the separation. Precision Plus protein standards (Bio-Rad) were used to visualize migration.”\nas §3"}, "P38MAPK": {"system": "P38MAPK", "assay": "P38MAPK phosphorylation in HUVECs attached to collagen peptides, Western blot", "type": "cell-based, human", "conditions": "PP2 10 μM vs DMSO; FIG. 7F", "experimental": "as §5\nas §2, with “migration. Protein was transferred to nitrocellulose membranes using a wet tank system and blocked for 1 h using 10% non-fat dried milk in tris-buffered saline with 0.01% Tween-20 (TBS-T).” for “migration.”, “intensity. […]” for “intensity.”"}, "[3]": {"system": "human umbilical vein endothelial cell (HUVEC)", "assay": "Cell adhesion to immobilized RGD collagen peptides, HUVEC", "type": "cell-based", "conditions": "peptides immobilized 100 μg/ml; 25 min at 37° C; FIG. 1A", "experimental": "(§6) RGD peptides (P-1, P-2, P-3, P-4, P-5, and P-C) were immobilized (100 μg/ml) to wells. HUVEC, HMVEC, HRMVEC, and HDF cells were suspended in adhesion buffer (RPMI containing 1 mM MgCl2, 0.2 mM MnCl2 and 0.5% BSA) and 1×10^5 cells were seeded into the wells in the presence or absence of P4C10, LM609, P1F6 or control antibodies (100 μg/ml). Cells were allowed to attach for 25 min at 37° C. Media containing non-attached cells was aspirated and attached cells were washed with PBS and stained with crystal violet. Cell adhesion was quantified by measuring the optical density of eluted dye. Adhesion assays were completed at least three times with triplicate wells."}, "[4]": {"system": "chick chorioallantoic membrane (CAM)", "assay": "Chick CAM angiogenesis assay, induction by RGD collagen peptides", "type": "in vivo", "conditions": "inhibitor SB202190 10 μM vs DMSO control; FIG. 6F", "experimental": "as §1\nTo examine this possibility, the effects of the RGDKGE (SEQ ID NO. 1) containing collagen peptide on angiogenesis and inflammation in the chick CAM were assessed."}, "[5]": {"system": "chick chorioallantoic membrane (CAM)", "assay": "Chick CAM inflammation assay, FGF-2 induced, antibody treatment", "type": "in vivo", "conditions": "chick CAM, FGF-2 stimulated; vs no treatment or control antibody; FIG. 3E", "experimental": "as §1, with “Eight to twelve embryos were used per condition and experiments were repeated at least three times.” left out\nThe chick CAM has been routinely used to assess inflammation and granulation tissue formation, which are largely dependent on infiltration of chick heterophils (the avian equivalent of neutrophils), macrophages and activated fibroblasts (36,37). To study the potential differential biological impact of RGD epitopes, FGF-2 induced inflammation was examined by carrying out similar experiments in the absence of cortisone acetate and quantifying CAM thickening. […]"}, "human dermal fibroblasts": {"system": "human dermal fibroblasts", "assay": "Cell adhesion to immobilized RGD collagen peptides, HDF", "type": "cell-based", "conditions": "peptides immobilized 100 μg/ml; FIG. 1D", "experimental": "as §6"}, "[6]": {"system": "human retinal microvascular endothelial cells (HRMVEC)", "assay": "Cell adhesion to immobilized RGD collagen peptides, HRMVEC", "type": "cell-based", "conditions": "peptides immobilized 100 μg/ml; FIG. 1C", "experimental": "as §6"}, "[7]": {"system": "human microvascular endothelial cells (HMVEC)", "assay": "Cell adhesion to immobilized RGD collagen peptides, HMVEC", "type": "cell-based", "conditions": "peptides immobilized 100 μg/ml; FIG. 1B", "experimental": "as §6"}},
  "data": [
    {"compound": "KGDRGDAPG [Mab P-1, Synthetic RGDAPG containing collagen type-I peptide, Colla1 742-750; made with flanking cysteines (…)]", "values": [
      {"measurement": "CAM inflammation following stimulation with peptide", "setting": "[1]", "value": "Minimal evidence of tissue inflammation"},
      {"measurement": "Fak phosphorylation following ligation of peptide", "setting": "Fak", "value": "Minimal Fak phosphorylation"},
      {"measurement": "HUVEC growth with soluble peptide", "setting": "HUVEC", "value": "minimal effect"},
      {"measurement": "HRMVEC growth with soluble peptide", "setting": "HRMVEC", "value": "minimal effect"}
    ]},
    {"compound": "VEGF", "values": [
      {"measurement": "endothelial cell growth in YAP knock down cells", "setting": "[2]", "value": "enhanced growth"}
    ]},
    {"compound": "CC(C)(C)n1nc(-c2ccc(Cl)cc2)c2c(N)ncnc21", "note": "[PP2, reference compound]", "values": [
      {"measurement": "reduction of nuclear YAP accumulation in P-2 stimulated endothelial cells as compared to control", "setting": "YAP", "value": "approximately 50%"},
      {"measurement": "β3 phosphorylation following binding to collagen peptide P-2, with inhibitor", "setting": "β3-integrin", "value": "reduced"},
      {"measurement": "P38MAPK phosphorylation following binding to collagen peptide P-2, with inhibitor", "setting": "P38MAPK", "value": "reduced"}
    ]},
    {"compound": "RGPRGDQGP [Mab P-5, Synthetic RGD containing collagen type-I peptide, Colla2 819-827 (…)]", "values": [
      {"measurement": "HUVEC adhesion to immobilized peptides", "setting": "[3]", "value": "highest levels of adhesion"}
    ]},
    {"compound": "Oc1ccc(-c2nc(-c3ccncc3)c(-c3ccc(F)cc3)[nH]2)cc1", "note": "[SB202190, reference compound]", "values": [
      {"measurement": "effect on P-2 induced angiogenesis in the chick CAM", "setting": "[4]", "value": "reduced"},
      {"measurement": "reduction of nuclear YAP accumulation in P-2 stimulated endothelial cells as compared to control", "setting": "YAP", "value": "approximately 50%"}
    ]},
    {"compound": "CC(=O)OCC(=O)[C@@]1(O)CC[C@H]2[C@@H]3CCC4=CC(=O)CC[C@]4(C)[C@H]3C(=O)C[C@@]21C", "note": "[cortisone acetate, reference compound]", "values": [
      {"measurement": "reduction of CAMs exhibiting inflammation (thickening)", "setting": "[5]", "value": "greater than 80%"}
    ]},
    {"compound": "QGPSGAPGE [P-C, reference compound]", "values": [
      {"measurement": "HDF adhesion to immobilized peptides", "setting": "human dermal fibroblasts", "value": "failed to support interactions"},
      {"measurement": "CAM inflammation following stimulation with peptide", "setting": "[1]", "value": "Minimal evidence of tissue inflammation"},
      {"measurement": "HUVEC adhesion to immobilized peptides", "setting": "[3]", "value": "failed to support adhesion"},
      {"measurement": "HRMVEC adhesion to immobilized peptides", "setting": "[6]", "value": "failed to support interactions"},
      {"measurement": "HMVEC adhesion to immobilized peptides", "setting": "[7]", "value": "failed to support interactions"}
    ]}
  ]
}
